Test results: PubChem BioAssay (NCI)
Where “and” joins values, the source holds several entries; their conditions need not be identical. Equal entries are not always repeated.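 Test compounds were applied to cells in 96-well plates for 48 hours at 5 doses. TGI: concentration producing complete growth inhibition.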

Key:
Assay in all cases: NCI tumour cell line growth inhibition, 48 h
M14 melanoma = system: M14 melanoma
HCT-15 colon = system: HCT-15 colon
OVCAR-3 ovarian = system: OVCAR-3 ovarian
M19-MEL melanoma = system: M19-MEL melanoma
DMS 114 small cell lung = system: DMS 114 small cell lung
SN12C renal = system: SN12C renal
LOX IMVI melanoma = system: LOX IMVI melanoma
SF-295 CNS = system: SF-295 CNS
RPMI-8226 leukemia = system: RPMI-8226 leukemia
SF-268 CNS = system: SF-268 CNS
KM20L2 colon = system: KM20L2 colon
MDA-N = system: MDA-N

SMILES	TGI (M14 melanoma)	TGI (HCT-15 colon)	TGI (OVCAR-3 ovarian)	TGI (M19-MEL melanoma) [µM]	TGI (DMS 114 small cell lung) [µM]	TGI (SN12C renal)	TGI (LOX IMVI melanoma)	TGI (SF-295 CNS)	TGI (RPMI-8226 leukemia)	TGI (SF-268 CNS)	TGI (KM20L2 colon) [µM]	TGI (MDA-N)
CSc1nc(C)cc(=O)n1C1OC(COC(C)=O)C(OC(C)=O)C(OC(C)=O)C1OC(C)=O (stereo not given)	> 100 µM	> 100 µM	> 100 µM	> 100	> 100	> 100 µM	> 100 µM	> 100 µM	> 100 µM	> 100 µM	> 100	–
COc1cccc(/C=C2/S/C(=N/Nc3nc(C)c(C(C)=O)s3)NC2=O)c1O	> 100 µM	> 100 µM	60.3 µM	–	–	> 100 µM	> 100 µM	> 100 µM	84.6 µM	> 100 µM	–	> 100 µM
COC(=O)C1(Cc2ccccc2)Cc2c(C)ccc(C)c2C1=O (stereo not given)	98.8 µM	> 100 µM	85.1 µM	–	–	> 100 µM	34.6 µM	> 100 µM	75.4 µM	> 100 µM	–	> 100 µM
Cn1c(=O)n2n(c1=O)C(S(=O)c1ccccc1)C2 (stereo not given)	> 100 µM	> 100 µM	> 100 µM	–	–	> 100 µM	> 100 µM	> 100 µM	> 100 µM	> 100 µM	–	> 100 µM
Nc1nc2c(c(=O)[nH]1)NC(CCNc1ccc(C(=O)O)cc1)CN2 (stereo not given)	> 100 µM	> 100 µM	> 100 µM	–	–	> 100 µM	> 100 µM	> 100 µM	> 100 µM	> 100 µM	–	> 100 µM
O[C@]12c3ccccc3C1CCCCC2N1CCOCC1 (stereo not given in full)	> 100 µM	> 100 µM	–	> 100	> 100	> 100 µM	> 100 µM	> 100 µM	> 100 µM	> 100 µM	> 100	–
CN(CCCNC(=O)c1c2ccc3ccccc3c2nn1C)CCCNC(=O)c1c2ccc3ccccc3c2nn1C	3.99 µM	19.4 µM	37.3 µM	–	–	25.6 µM	9.18 µM	9.77 µM	4.86 µM	25.6 µM	–	8.91 µM
O=C([O-])C1([n+]2c(-c3ccccc3)cc(-c3ccccc3)cc2-c2ccccc2)CC1	> 100 µM	> 100 µM	> 100 µM	–	–	> 100 µM	> 100 µM	> 100 µM	> 100 µM	> 100 µM	–	> 100 µM
Cc1cc(C)nc(NC(=S)Nc2ccc(Cl)cc2)c1	> 100 µM	> 100 µM	> 100 µM	–	–	> 100 µM	> 100 µM	> 100 µM	> 100 µM	> 100 µM	–	> 100 µM
CSC1(Cc2ccccn2)C(=O)Nc2cccc([N+](=O)[O-])c21 (stereo not given)	> 100 µM	> 100 µM	> 100 µM	–	–	> 100 µM	> 100 µM	> 100 µM	> 100 µM	> 100 µM	–	> 100 µM
O=c1[nH]nc(Cc2ccccc2)n1C1CC1	> 100 µM	> 100 µM	> 100 µM	–	–	> 100 µM	> 100 µM	> 100 µM	> 100 µM	> 100 µM	–	> 100 µM
O=S(=O)(/N=C(\NO)Nc1ccc(Cl)cc1)c1cc(S(=O)(=O)c2ccccc2)cs1	29.2 µM	44.3 µM	31.1 µM	–	–	33.6 µM	39 µM	32.7 µM	44.8 µM	37 µM	–	34.8 µM
C=C(Cl)C(Cl)(CBr)CCC(Br)C(C)(C)Cl (stereo not given)	42.2 µM and 33.5 µM and > 74 µM	10.6 µM and 6.12 µM and 27.8 µM	3.09 µM and 1.96 µM and 4.78 µM	–	–	21.9 µM and 19.3 µM and 28.1 µM	12.4 µM and 29.7 µM and 33.6 µM	3.53 µM and 3.04 µM and 3.7 µM	1.33 µM and 1.56 µM and 3.22 µM	3.13 µM and 1.97 µM and 9.92 µM	–	8.91 µM and 3.02 µM and 21.6 µM
Nc1ncc(Sc2ccccc2C(=O)O)s1	> 100 µM	> 100 µM	> 100 µM	–	–	> 100 µM	> 100 µM	> 100 µM	> 100 µM	> 100 µM	–	> 100 µM
COc1cccc(/C=N/[N-]C(N)=O)c1[O-].[OH3+].[Pd+2]	> 100 µM	> 100 µM	> 100 µM	–	–	> 100 µM	> 100 µM	> 100 µM	> 100 µM	> 100 µM	> 100	–
COc1cccc(Nc2nc(NS(=O)(=O)c3cc(C)c(Cl)cc3S)n[nH]2)c1	> 100 µM	> 100 µM	> 100 µM	–	–	> 100 µM	> 100 µM	> 100 µM	> 100 µM	> 100 µM	–	> 100 µM
O=C(O)c1ccccc1CC(Cc1ccccc1)C(=O)O (stereo not given)	> 100 µM	> 100 µM	> 100 µM	–	–	> 100 µM	> 100 µM	> 100 µM	> 100 µM	> 100 µM	–	> 100 µM
Cn1c(SCc2c[nH]c3ccccc23)nnc1-c1ccc(Cl)cc1Cl	38.1 µM	> 100 µM	35.1 µM	–	–	47.5 µM	20 µM	27.2 µM	27.1 µM	> 100 µM	–	78.9 µM

SMILES	TGI (M14 melanoma)	TGI (HCT-15 colon)	TGI (OVCAR-3 ovarian)	TGI (M19-MEL melanoma) [µM]	TGI (DMS 114 small cell lung) [µM]	TGI (SN12C renal)	TGI (LOX IMVI melanoma)	TGI (SF-295 CNS)	TGI (RPMI-8226 leukemia)	TGI (SF-268 CNS)	TGI (KM20L2 colon) [µM]	TGI (MDA-N)
COc1cccc(N2C(=O)C3CC(CC(C)(C)C)c4c([nH]c5ccccc45)C3C2=O)c1 (stereo not given)	> 10 µM	> 10 µM	> 10 µM	–	–	> 10 µM	> 10 µM	> 10 µM	> 10 µM	> 10 µM	–	> 10 µM
N#Cc1c(N)nc2n[nH]c(N)c2c1-c1ccccc1	37.5 µM	> 77.8 µM	20.5 µM	–	–	31.8 µM	19 µM	29.7 µM	> 53.8 µM	29.2 µM	–	33 µM
Nc1ncnc2c1N=C(c1ccccc1)CC(c1ccccc1)N2 (stereo not given)	> 100 µM	> 100 µM	> 100 µM	–	–	> 100 µM	> 100 µM	> 100 µM	> 100 µM	> 100 µM	–	> 100 µM
CCOc1cc2c(cc1O)CC[C@@H]1[C@@H]2CC[C@]2(C)[C@@H](O)CC[C@@H]12	3.16 µM	27.2 µM	0.76 µM	–	–	46.3 µM	21 µM	5.87 µM	7.86 µM	48.5 µM	–	< 0.0198 µM
CC1(CCCCO)C=CC(S(=O)(=O)c2ccccc2)CC1 (stereo not given)	12.2 µM	13.3 µM	19 µM	–	–	23.6 µM	3.65 µM	24.4 µM	11 µM	12.4 µM	–	14.4 µM
COc1cccc2c1[C@H]1OC(=O)NC1CCCCC2 (stereo not given in full)	> 100 µM	> 100 µM	> 100 µM	> 100	> 100	> 100 µM	> 100 µM	> 100 µM	> 100 µM	> 100 µM	> 100	–
CCOP(=O)(/C=C\n1ccc(=O)[nH]c1=O)OCC	> 100 µM	> 100 µM	> 100 µM	–	–	> 100 µM	> 100 µM	> 100 µM	> 100 µM	> 100 µM	–	> 100 µM
CCCCCC(/C=C/[C@@H]1[C@@H](C(O)CCCCCC(=O)OC)C(=O)C[C@H]1O[Si](C)(C)C(C)(C)C)OCOCCOC (stereo not given in full)	37.1 µM	27.5 µM	28.1 µM	–	–	45.7 µM	14.5 µM	32.6 µM	> 25.7 µM	28.4 µM	–	24.4 µM
Cc1ccc(C=C(C(=O)O)C(=O)O)o1	> 100 µM	> 100 µM	> 100 µM	–	–	> 100 µM	> 100 µM	> 100 µM	> 100 µM	> 100 µM	–	> 100 µM
COc1ccc2c(C(=O)c3c(C)n(CCN4CCOCC4)c4ccccc34)cccc2c1	87.7 µM	> 100 µM	29.6 µM	–	–	> 100 µM	45.4 µM	49 µM	83.6 µM	55.4 µM	–	> 100 µM
COCCOCCOCCC(=O)NC1CC2CCC1(C)C2(C)C (stereo not given)	> 100 µM	> 100 µM	> 100 µM	–	–	> 100 µM	> 100 µM	> 100 µM	> 100 µM	> 100 µM	–	> 100 µM
Cc1cc(/N=C/c2ccc(Cl)cc2)n(-c2ccccc2)n1	> 100 µM	> 100 µM	> 100 µM	–	–	> 100 µM	> 100 µM	> 100 µM	> 100 µM	> 100 µM	–	> 100 µM
Cc1cc(NS(=O)(=O)c2ccc(NC(=O)c3ccc4nc5ccccc5c(Nc5ccc(S(=O)(=O)Nc6cc(C)on6)cc5)c4c3)cc2)no1	> 50 µM	> 50 µM	> 50 µM	–	–	> 50 µM	> 50 µM	> 50 µM	> 50 µM	> 50 µM	–	> 50 µM
CC1=NNC(=O)[C@H]2[C@H]1CCC1[C@@H]2CC[C@]2(C)[C@@H](O)CC[C@@H]12 (stereo not given in full)	> 100 µM	> 100 µM	> 100 µM	–	–	> 100 µM	> 100 µM	> 100 µM	> 100 µM	> 100 µM	–	> 100 µM
CCCCOc1ccc(S(=O)(=O)/N=C(\N)Nc2ccc(Cl)cc2)cc1	38 µM	27.6 µM	31.8 µM	–	–	30.1 µM	32.8 µM	36.1 µM	45.8 µM	29.3 µM	–	30.4 µM
CCCCC1Cc2cc(OC)ccc2-c2n1c1cc(OC)ccc1[n+]2C (stereo not given) (tested in a mixture with another compound)	25.7 µM	> 56.7 µM	> 72.1 µM	–	–	7.97 µM	14.3 µM	> 37.3 µM	2.17 µM	6.09 µM	–	11.1 µM
CCCCOCCOCCOC1=C(Cl)C(=O)c2c(O)ccc(O)c2C1=O	0.317 µM	1.11 µM	2.08 µM	–	–	2.96 µM	1.75 µM	3.13 µM	1.32 µM	2.11 µM	–	2.03 µM
